Common to all, as to type: biochemical
Assay [1] concerns the target T1, murine 11β-HSD1 (Mus musculus, UniProt P50172).
T1 construct: The full-length cDNAs of human or murine11β-HSD1 and 11β-HSD2 were isolated from the cDNA libraries; made in house; host or cells: HEK-293, stably transfected with a pcDNA3 plasmid; microsomal fraction
In words: scintillation proximity assay (SPA), murine 11β-HSD1. The method, then:
The inhibitory activity of compounds 1–3 on murine and human 11β-HSD1 was evaluated using the scintillation proximity assay (SPA)[25]. […] We further used the intact cell transfected with human HSD11B1 and HSD11B2 to screen their bioactivities. […] The inhibitory activities of the compounds on human or mouse 11β-HSD1 and 11β-HSD2 were determined using the scintillation proximity assay (SPA). The full-length cDNAs of human or murine11β-HSD1 and 11β-HSD2 were isolated from the cDNA libraries provided by NIH Mammalian Gene Collection. The cDNAs were cloned into pcDNA3 expression vectors. HEK-293 cells were transfected with the pcDNA3-derived expression plasmid and selected by cultivation in the presence of 700 μg/ml of G418. The microsomal fraction overexpressing 11β-HSD1 or 11β-HSD2 was prepared from the HEK-293 cells, which were stably transfected with 11β-HSD1 or 11β-HSD2. The fraction was then used as the enzyme source for SPA. Microsomes containing human or mouse 11β-HSD1 were incubated with NADPH and [^3H] cortisone. The product, [^3H] cortisol, was specifically captured by a monoclonal antibody coupled to protein A-coated SPA beads. The 11β-HSD2 screening was performed by incubating 11β-HSD2 microsomes with [^3H] cortisol and NAD + and monitoring substrate disappearance. All tests were done twice with glycyrrhizinic acid as a positive control.

The target of assay [2] is T2, human 11β-HSD1 (Homo sapiens, UniProt P28845).
T2 construct: The full-length cDNAs of human or murine11β-HSD1 and 11β-HSD2 were isolated from the cDNA libraries; made in house; host or cells: HEK-293, stably transfected with a pcDNA3 plasmid; microsomal fraction
The experiment in a line: scintillation proximity assay (SPA), human 11β-HSD1. The method, then: (§1) The inhibitory activity of compounds 1–3 on murine and human 11β-HSD1 was evaluated using the scintillation proximity assay (SPA)[25]. […] We further used the intact cell transfected with human HSD11B1 and HSD11B2 to screen their bioactivities.
(§2) The inhibitory activities of the compounds on human or mouse 11β-HSD1 and 11β-HSD2 were determined using the scintillation proximity assay (SPA). The full-length cDNAs of human or murine11β-HSD1 and 11β-HSD2 were isolated from the cDNA libraries provided by NIH Mammalian Gene Collection. The cDNAs were cloned into pcDNA3 expression vectors. HEK-293 cells were transfected with the pcDNA3-derived expression plasmid and selected by cultivation in the presence of 700 μg/ml of G418. The microsomal fraction overexpressing 11β-HSD1 or 11β-HSD2 was prepared from the HEK-293 cells, which were stably transfected with 11β-HSD1 or 11β-HSD2. The fraction was then used as the enzyme source for SPA. Microsomes containing human or mouse 11β-HSD1 were incubated with NADPH and [^3H] cortisone. The product, [^3H] cortisol, was specifically captured by a monoclonal antibody coupled to protein A-coated SPA beads. The 11β-HSD2 screening was performed by incubating 11β-HSD2 microsomes with [^3H] cortisol and NAD + and monitoring substrate disappearance. […] IC50 (X + SD, n = 2) values were calculated by using Prism Version 4 (GraphPad Software, SanDiego, CA).

In assay [3] the test system is human 11β-HSD2. The experiment in a line: scintillation proximity assay (SPA), human 11β-HSD2. As to conditions: human 11β-HSD2 vs human 11β-HSD1. The method, then: as §1, §2
Assay [4] addresses T3, murine 11β-HSD2 (Mus musculus, UniProt P51661).
T3 construct: The full-length cDNAs of human or murine11β-HSD1 and 11β-HSD2 were isolated from the cDNA libraries; made in house; host or cells: HEK-293, stably transfected with a pcDNA3 plasmid; microsomal fraction
T3 sequence (P51661 1-386): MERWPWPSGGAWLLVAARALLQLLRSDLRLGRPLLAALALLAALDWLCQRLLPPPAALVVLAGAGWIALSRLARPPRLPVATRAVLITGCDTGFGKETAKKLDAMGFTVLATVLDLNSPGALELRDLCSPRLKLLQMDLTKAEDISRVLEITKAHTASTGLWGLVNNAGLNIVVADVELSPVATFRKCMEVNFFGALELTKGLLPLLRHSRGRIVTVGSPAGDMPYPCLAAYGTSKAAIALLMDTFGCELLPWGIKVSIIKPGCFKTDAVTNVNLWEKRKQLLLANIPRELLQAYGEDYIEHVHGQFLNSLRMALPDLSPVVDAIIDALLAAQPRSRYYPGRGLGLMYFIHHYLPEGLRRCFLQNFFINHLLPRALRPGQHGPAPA
In words: scintillation proximity assay (SPA), murine 11β-HSD2. As for the experimental part: as §1, §2

pIC50: −log10 of the molar value. Read-outs that look alike come from different tables or passages of the source.

T1 sequence (P50172 whole entry): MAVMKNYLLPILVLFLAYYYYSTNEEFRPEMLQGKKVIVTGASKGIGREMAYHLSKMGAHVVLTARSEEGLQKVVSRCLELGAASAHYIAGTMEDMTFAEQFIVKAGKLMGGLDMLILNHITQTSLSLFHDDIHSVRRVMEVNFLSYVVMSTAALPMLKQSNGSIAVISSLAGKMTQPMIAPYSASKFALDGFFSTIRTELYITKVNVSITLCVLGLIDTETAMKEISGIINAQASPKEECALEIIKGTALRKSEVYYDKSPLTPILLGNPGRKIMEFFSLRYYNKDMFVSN
T2 sequence (P28845 whole entry): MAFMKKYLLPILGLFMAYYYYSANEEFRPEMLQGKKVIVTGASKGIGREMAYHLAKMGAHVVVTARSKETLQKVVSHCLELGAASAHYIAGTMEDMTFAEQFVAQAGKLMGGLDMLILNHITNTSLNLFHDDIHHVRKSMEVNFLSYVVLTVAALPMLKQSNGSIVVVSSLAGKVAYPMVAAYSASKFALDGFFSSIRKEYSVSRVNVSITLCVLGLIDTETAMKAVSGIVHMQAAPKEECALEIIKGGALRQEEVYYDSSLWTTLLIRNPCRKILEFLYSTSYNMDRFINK

Consider `CC1(C)[C@@H](O[C@H]2O[C@H](C(=O)O)[C@@H](O)[C@H](O)[C@H]2O[C@@H]2O[C@H](C(=O)O)[C@@H](O)[C@H](O)[C@H]2O)CC[C@]2(C)[C@H]3C(=O)C=C4[C@@H]5C[C@@](C)(C(=O)O)CC[C@]5(C)CC[C@@]4(C)[C@]3(C)CC[C@@H]12` [Glycyrrhizic acid, reference compound], for which the inhibition at 0.001 µM in assay [1] (1 nM, read-out: Inhibition rate on murine 11β-HSD1) was found to be 21.2%. The inhibition at 0.01 µM in assay [1] (10 nM, read-out: Inhibition rate on murine 11β-HSD1) turned out to be 51.9%. In assay [1] (100 nM, read-out: Inhibition rate on murine 11β-HSD1), the inhibition at 0.1 µM turned out to be 86.8%.
Take `CC1=CC23C(=O)OC(C)(C)C1CC2(O)CC1=C2C(=O)OC(c4ccoc4)C2(C)CCC13` (centres unmarked) [Compound 3, Harperforin G]: the pIC50 in assay [2] (SPA, text: intact cell transfected with human HSD11B1, whole cell assay, read-out: IC50, inhibition of human 11β-HSD1) is 6.24. For the same molecule, the “SI (selectivity against human 11β-HSD2)” value in assay [3] is on record as above 174.
For `CC1(C)OC(=O)C=C[C@]2(C)O[C@@]3(CC4=C5C(=O)O[C@@H](c6ccoc6)[C@]5(C)CC[C@H]4O3)C[C@H]12` [Compound 1, Harperspinoid A], in assay [1] (0.1 μM, read-out: Inhibition rate on murine 11β-HSD1), the inhibition at 0.1 µM was 22.8%. Besides, the inhibition at 0.3 µM in assay [1] (0.3 μM, read-out: Inhibition rate on murine 11β-HSD1) turned out to be 35.1%. In assay [1] (1 μM, read-out: Inhibition rate on murine 11β-HSD1), the inhibition at 1 µM is 55.8%. Also, in assay [1] (3 μM, read-out: Inhibition rate on murine 11β-HSD1), the inhibition at 3 µM stood at 79.4%. Further, the inhibition at 10 µM in assay [1] (10 μM, read-out: Inhibition rate on murine 11β-HSD1) was found to be 90.5%. For the same molecule, the pIC50 in assay [1] (SPA, text: intact CHOP cells transfected with murine HSD11B1, read-out: IC50, inhibition of murine 11β-HSD1) was 6.22. Besides, the “inhibition of murine 11β-HSD2 activity” value in assay [4] (at 1 mM) is listed as “did not inhibit the enzyme at all”. Further, the “SI (selectivity against murine 11β-HSD2)” value in assay [4] (murine 11β-HSD2 vs murine 11β-HSD1) was above 1661. The “inhibitory activity against human 11β-HSD1 enzyme” value in assay [2] (in words) is “low inhibitory activity”.
